Measured values: ChEMBL document CHEMBL3244037, “6-Aryl-4H-s-triazolo[4,3-a][1,4]benzodiazepines. Influence of 1-substitution on pharmacological activity” (J Med Chem, 1979)

What was measured:
[1] = test system: Mus musculus; test: Potentiation of apomorphine-induced gnawing in ip dosed albino CF1 mouse; assay type: organism-based
[2] = test system: Mus musculus; test: Inhibition of apomorphine-induced cage climbing in ip dosed albino CF1 mouse compound administered prior to challenge measured for 5 mins after 5 mins of challenge; assay type: functional
[3] = test system: Mus musculus; test: Anticonvulsant activity in ip dosed albino CF1 mouse assessed as protection against pentylenetetrazole-induced clonic convulsions; assay type: functional
[4] = test system: Mus musculus; test: Hypothermic activity in ip dosed albino CF1 mouse assessed as effect on body temperature measured after 45 mins; assay type: functional; conditions: 0.75 h
[5] = test system: Mus musculus; test: Inhibition of oxotremorine-induced hypothermia in ip dosed albino CF1 mouse; assay type: functional
[6] = test system: Mus musculus; test: Anticonvulsant activity in ip dosed albino CF1 mouse assessed as inhibition of bicucullin-induced tonic extensor convulsions; assay type: functional
[7] = test system: Mus musculus; test: Inhibition of amphetamine aggregation toxicity in ip dosed albino CF1 mouse compound administered 1 hr prior to challenge measured after 2 hrs; assay type: functional
[8] = test system: Mus musculus; test: Reduction of hypoxic stress in ip dosed albino CF1 mouse assessed as prolongation of hypoxic survival time; assay type: functional
[9] = test system: Mus musculus; test: Potentiation of yohimbine toxicity in ip dosed aggregated albino CF1 mouse; assay type: organism-based
[10] = test system: Mus musculus; test: […] activity in ip dosed albino CF1 mouse assessed as potentiation of gamma-butyrolactone-induced sleep; assay type: functional

| Structure (SMILES) | ED50 [1] [mg/kg] | ED50 [2] [mg/kg] | ED50 [3] [mg/kg] | ED50 [4] [mg/kg] | ED50 [5] [mg/kg] | ED50 [6] [mg/kg] | ED50 [7] [mg/kg] | ED50 [8] [mg/kg] | ED50 [9] [mg/kg] | ED50 [10] [mg/kg] |
| --- | --- | --- | --- | --- | --- | --- | --- | --- | --- | --- |
| Nc1nnc2n1-c1ccc(Cl)cc1C(c1ccccc1)=NC2 | > 50 | > 50 | 14 | 9 | > 50 | 20 | > 50 | > 50 | > 50 | 2 |
| CSc1nnc2n1-c1ccc(Cl)cc1C(c1ccccc1)=NC2 | > 50 | > 50 | 8 | 10 | > 50 | 10 | > 50 | 10 | > 50 | 0.8 |
| CN(C)C(=O)Cc1nnc2n1-c1ccc(Cl)cc1C(c1ccccc1)=NC2 | > 50 | > 50 | 5.6 | > 50 | > 50 | 40 | > 50 | > 50 | > 50 | 10 |
| OCCc1nnc2n1-c1ccc(Cl)cc1C(c1ccccc1)=NC2 | > 50 | > 50 | 4 | 30 | > 50 | > 50 | > 50 | 4 | > 50 | > 50 |
| CC1N=C(c2ccccc2)c2cc(Cl)ccc2-n2c(Br)nnc21 (stereo not given) | > 50 | > 50 | 3.7 | > 50 | > 50 | 1.9 | > 50 | > 50 | > 50 | 3.1 |
| CC1N=C(c2ccccc2)c2cc(Cl)ccc2-n2cnnc21 (stereo not given) | > 50 | > 50 | 3.7 | 10.5 | 7.4 | 4.4 | > 50 | 42 | > 50 | 0.6 |
| Clc1ccccc1C1=NCc2nnc(Br)n2-c2ccccc21 | > 50 | > 50 | 10.5 | > 50 | > 50 | 25 | > 50 | 8.8 | > 50 | 6.2 |
| CN1CCN(c2nnc3n2-c2ccc(Br)cc2C(c2ccccn2)=NC3)CC1 | 3.7 | > 50 | 12.5 | > 50 | > 50 | 8.8 | > 50 | 21 | 35.4 | 3.1 |
| CN1CCN(c2nnc3n2-c2ccccc2C(c2ccccc2Cl)=NC3)CC1 | > 25 | 4.4 | 6.2 | 0.2 | > 25 | > 25 | > 25 | 1.1 | > 25 | > 25 |
| c1ccc(C2=NCc3nnc(N4CCOCC4)n3-c3ccccc32)cc1 | > 50 | > 50 | 9 | > 50 | > 50 | > 50 | > 50 | > 50 | > 50 | 20 |
| Clc1ccc2c(c1)C(c1ccccc1)=NCc1nnc(N3CCCC3)n1-2 | > 50 | > 50 | 4.5 | 40 | 30 | 4 | > 50 | > 50 | > 50 | 3 |
| CCN(CC)CCOc1nnc2n1-c1ccc(Cl)cc1C(c1ccccc1)=NC2 | > 50 | > 50 | 8.8 | > 50 | > 50 | 12.5 | > 50 | 40 | 42 | 2.2 |
| Clc1ccc2c(c1)C(c1ccccc1)=NCc1nnc(C(Cl)Cl)n1-2 | > 50 | > 50 | 8 | > 50 | > 50 | 10 | > 50 | > 50 | > 50 | 3 |
